The source of these data is ChEMBL document CHEMBL3046356, “Synthesis and anticholinesterase activity of fumaramide derivatives” (Med Chem Res, 2013).

The target of one test is Acetylcholinesterase (Electrophorus electricus, UniProt O42275). Kind of test: Inhibition of Electrophorus electricus (electric eel) AChE using acetylthiocholine iodide as substrate preincubated with enzyme for 15 min prior to substrate addition measured every 45 s by colorimetric Ellman's method. (In general: DTNB colorimetry detects thiols as they appear.)
Acetylcholinesterase, sequence (O42275 whole entry): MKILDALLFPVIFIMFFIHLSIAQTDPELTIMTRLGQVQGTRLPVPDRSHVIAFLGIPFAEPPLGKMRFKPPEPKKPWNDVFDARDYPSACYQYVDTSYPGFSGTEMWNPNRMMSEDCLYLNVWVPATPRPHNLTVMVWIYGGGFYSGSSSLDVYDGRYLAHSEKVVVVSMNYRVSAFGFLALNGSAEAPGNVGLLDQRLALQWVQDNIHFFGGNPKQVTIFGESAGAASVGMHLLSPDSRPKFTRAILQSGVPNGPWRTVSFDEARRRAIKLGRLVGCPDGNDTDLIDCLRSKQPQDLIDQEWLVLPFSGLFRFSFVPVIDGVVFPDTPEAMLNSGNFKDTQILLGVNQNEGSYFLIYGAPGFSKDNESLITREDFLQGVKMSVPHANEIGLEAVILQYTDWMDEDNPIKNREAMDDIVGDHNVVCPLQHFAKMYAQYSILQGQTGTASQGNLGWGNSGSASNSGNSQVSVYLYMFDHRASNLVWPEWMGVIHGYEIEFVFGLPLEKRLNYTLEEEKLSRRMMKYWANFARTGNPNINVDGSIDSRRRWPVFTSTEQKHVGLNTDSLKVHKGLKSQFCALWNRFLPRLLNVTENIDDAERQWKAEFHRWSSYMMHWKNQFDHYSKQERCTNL
The target in the next test is Cholinesterase (Equus caballus, UniProt P81908). Kind of test: Inhibition of BCHE in Equus caballus (horse) serum using butyrylthiocholine iodide as substrate preincubated with enzyme for 15 min prior to substrate addition measured every 45 s by colorimetric Ellman's method.
Cholinesterase, sequence (P81908 whole entry): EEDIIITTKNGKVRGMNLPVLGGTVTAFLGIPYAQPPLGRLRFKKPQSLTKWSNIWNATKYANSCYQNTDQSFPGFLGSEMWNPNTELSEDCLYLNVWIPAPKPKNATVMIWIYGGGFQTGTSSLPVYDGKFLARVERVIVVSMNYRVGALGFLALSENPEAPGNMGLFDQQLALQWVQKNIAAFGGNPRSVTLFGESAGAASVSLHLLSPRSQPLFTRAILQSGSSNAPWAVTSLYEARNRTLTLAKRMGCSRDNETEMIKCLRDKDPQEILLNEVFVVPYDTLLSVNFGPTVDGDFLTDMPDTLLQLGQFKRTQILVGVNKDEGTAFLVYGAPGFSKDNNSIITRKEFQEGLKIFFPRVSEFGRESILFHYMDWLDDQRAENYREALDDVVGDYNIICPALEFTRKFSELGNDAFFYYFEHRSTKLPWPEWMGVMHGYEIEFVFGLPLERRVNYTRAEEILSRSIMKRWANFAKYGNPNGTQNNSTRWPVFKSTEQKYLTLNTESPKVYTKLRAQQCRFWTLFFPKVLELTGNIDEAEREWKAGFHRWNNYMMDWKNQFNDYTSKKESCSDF
The target of test [1] is Acetylcholinesterase (Electrophorus electricus) (UniProt O42275). Kind of test: Inhibition of Electrophorus electricus (electric eel) AChE using acetylthiocholine iodide as substrate at 10 mg/ml by TLC-B assay.
Acetylcholinesterase (Electrophorus electricus), sequence (O42275 24-633 limits assumed): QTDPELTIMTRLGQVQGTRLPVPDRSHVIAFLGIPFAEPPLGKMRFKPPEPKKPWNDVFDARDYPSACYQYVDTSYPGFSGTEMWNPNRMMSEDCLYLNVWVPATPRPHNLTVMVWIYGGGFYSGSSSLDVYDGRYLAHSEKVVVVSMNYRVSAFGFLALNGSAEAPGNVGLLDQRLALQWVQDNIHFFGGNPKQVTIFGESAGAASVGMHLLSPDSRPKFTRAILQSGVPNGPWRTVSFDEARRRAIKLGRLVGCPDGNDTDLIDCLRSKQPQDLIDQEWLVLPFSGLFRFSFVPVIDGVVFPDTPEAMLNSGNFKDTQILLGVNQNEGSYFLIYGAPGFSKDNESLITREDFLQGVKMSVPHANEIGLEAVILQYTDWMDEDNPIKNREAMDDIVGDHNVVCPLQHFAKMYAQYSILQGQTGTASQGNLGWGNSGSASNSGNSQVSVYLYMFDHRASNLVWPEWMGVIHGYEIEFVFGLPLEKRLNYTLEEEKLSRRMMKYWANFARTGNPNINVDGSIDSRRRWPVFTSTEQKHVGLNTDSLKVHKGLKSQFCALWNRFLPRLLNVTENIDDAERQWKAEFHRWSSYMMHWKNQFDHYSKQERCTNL
For test [2], the target named is Cholinesterase (Equus caballus) (UniProt P81908). Kind of test: Non-competitive inhibition of BCHE in Equus caballus (horse) serum assessed as decrease in Vmax with unchanged Km using butyrylthiocholine iodide as substrate by Lineweaver-burk plot analysis.
Cholinesterase (Equus caballus), sequence (P81908 whole entry): as the sequence (P81908 whole entry) above
The target of test [3] is Acetylcholinesterase (Electrophorus electricus) (UniProt O42275). In words: Non-competitive inhibition of Electrophorus electricus (electric eel) AChE assessed as decrease in Vmax with unchanged Km using acetylthiocholine iodide as substrate by Lineweaver-burk plot analysis.

Activity calls are given as the source filed them. No cut-off for these calls is given here. Some results are limits rather than exact numbers.

The term IC50 denotes the concentration that inhibits the measured activity by half. A higher IC50 goes with lower potency. In the case of `Cc1ccc(CNc2ccc(F)cc2)cc1`, the half-inhibitory concentration (IC50) against Acetylcholinesterase and on Cholinesterase was more than 100 µM in each case. Besides, the inhibition result in test [1] is “Active”.

In the case of `O=C(/C=C/C(=O)N(Cc1ccccc1)c1ccc(Br)cc1)N(Cc1ccccc1)c1ccc(Br)cc1`, the inhibition result in test [2], in test [3] and in test [1] was “Active” throughout. Moreover, the IC50 on Acetylcholinesterase came to 8.06 µM; on Cholinesterase, 16.5 µM.

`CCc1ccc(N(Cc2ccccc2)C(=O)/C=C/C(=O)N(Cc2ccccc2)c2ccc(CC)cc2)cc1`: the IC50 on Acetylcholinesterase amounted to 32.2 µM; on Cholinesterase, 49.3 µM. Besides, the inhibition entry in test [1] was “Active”.

Regarding `Cc1ccc(CNc2ccc(C)cc2)cc1`, the IC50 against Acetylcholinesterase and against Cholinesterase was more than 100 µM throughout. Further, the inhibition entry in test [1] was “Active”.

As for `Cc1ccc(CN(C(=O)/C=C/C(=O)N(Cc2ccc(C)cc2)c2ccc(Cl)cc2)c2ccc(Cl)cc2)cc1`, the IC50 on Acetylcholinesterase was 2.42 µM; against Cholinesterase, 45.6 µM. Moreover, in test [1], the inhibition entry is “Active”.

On to `Cc1ccc(N(Cc2ccccc2)C(=O)/C=C/C(=O)N(Cc2ccccc2)c2ccc(C)cc2)cc1`, for which the IC50 was determined as 12.5 µM on Acetylcholinesterase and 26.3 µM against Cholinesterase. Besides, the inhibition result in test [1] is “Active”.

As for `O=C(/C=C/C(=O)N(Cc1ccccc1)c1ccccc1)N(Cc1ccccc1)c1ccccc1`, the results for the half-inhibitory concentration (IC50) against Acetylcholinesterase and on Cholinesterase were 11.8 µM and 52.4 µM, respectively. The inhibition result in test [1] is “Active”.

As for `CCc1ccc(NCc2ccc(C)cc2)cc1`, the IC50 against Acetylcholinesterase and against Cholinesterase was more than 100 µM each time. Besides, the inhibition entry in test [1] is “Active”.

Take `CCOc1ccc(NCc2ccccc2)cc1`: the 50% inhibitory concentration (IC50) at Acetylcholinesterase and on Cholinesterase was more than 100 µM each time. In addition, in test [1], the inhibition entry was “Active”.

With `Cc1ccc(CNc2ccc(Cl)cc2)cc1`, the IC50 against Acetylcholinesterase and against Cholinesterase was more than 100 µM throughout. For the same compound, in test [1], the inhibition entry was “Active”.

Regarding `COc1ccc(NCc2ccc(C)cc2)cc1`, the 50% inhibitory concentration (IC50) at Acetylcholinesterase was 1.33 µM; at Cholinesterase it was more than 100 µM. Also, the inhibition entry in test [1] was “Active”.

In the case of `CCOc1ccc(NCc2ccc(C)cc2)cc1`, the concentration for half-maximal inhibition (IC50) was more than 100 µM against Acetylcholinesterase and 4.07 µM against Cholinesterase. Moreover, the inhibition result in test [1] is “Active”.

Take `O=C(/C=C/C(=O)N(Cc1ccccc1)c1ccc(I)cc1)N(Cc1ccccc1)c1ccc(I)cc1`: the IC50 on Acetylcholinesterase is 0.97 µM; at Cholinesterase, 23.3 µM. For the same compound, in test [1], the inhibition entry was “Active”.

As for `CCOc1ccc(N(Cc2ccc(C)cc2)C(=O)/C=C/C(=O)N(Cc2ccc(C)cc2)c2ccc(OCC)cc2)cc1`, the IC50 on Acetylcholinesterase was 2.23 µM; against Cholinesterase, more than 100 µM. In addition, the inhibition result in test [1] is “Active”.

Regarding `O=C(/C=C/C(=O)N(Cc1ccccc1)c1ccc(Cl)cc1)N(Cc1ccccc1)c1ccc(Cl)cc1`, the IC50 on Acetylcholinesterase was 2.53 µM; against Cholinesterase it was 57.7 µM. Besides, the inhibition entry in test [1] is “Active”.

In the case of `Cc1ccc(CN(C(=O)/C=C/C(=O)N(Cc2ccc(C)cc2)c2ccc(F)cc2)c2ccc(F)cc2)cc1`, the half-inhibitory concentration (IC50) against Acetylcholinesterase was found to be 23.9 µM; on Cholinesterase it was 56.6 µM. Moreover, in test [1], the inhibition entry is “Active”.

As for `COc1ccc(N(Cc2ccccc2)C(=O)/C=C/C(=O)N(Cc2ccccc2)c2ccc(OC)cc2)cc1`, the IC50 was 13.9 µM against Acetylcholinesterase and 43.6 µM against Cholinesterase. Further, the inhibition entry in test [1] is “Active”.

As for `CCc1ccc(N(Cc2ccc(C)cc2)C(=O)/C=C/C(=O)N(Cc2ccc(C)cc2)c2ccc(CC)cc2)cc1`, the half-maximal inhibitory concentration (IC50) at Acetylcholinesterase was 29.4 µM; against Cholinesterase, 44.7 µM. For the same compound, the inhibition result in test [1] was “Active”.

Take `Cc1ccc(CN(C(=O)/C=C/C(=O)N(Cc2ccc(C)cc2)c2ccc(I)cc2)c2ccc(I)cc2)cc1`: the figures for the IC50 on Acetylcholinesterase and on Cholinesterase were 17.7 µM and 24.6 µM, respectively. Besides, the inhibition result in test [1] is “Active”.

As for `CCOc1ccc(N(Cc2ccccc2)C(=O)/C=C/C(=O)N(Cc2ccccc2)c2ccc(OCC)cc2)cc1`, the 50% inhibitory concentration (IC50) at Acetylcholinesterase was 35.9 µM; on Cholinesterase, 44 µM. In addition, the inhibition result in test [1] was “Active”.

Regarding `Brc1ccc(NCc2ccccc2)cc1`, the concentration for half-maximal inhibition (IC50) against Acetylcholinesterase and against Cholinesterase was more than 100 µM throughout. Moreover, the inhibition entry in test [1] was “Active”.

Take `Clc1ccc(NCc2ccccc2)cc1`: the IC50 against Acetylcholinesterase and on Cholinesterase was more than 100 µM each time. Further, the inhibition entry in test [1] was “Active”.

Regarding `COc1ccc(N(Cc2ccc(C)cc2)C(=O)/C=C/C(=O)N(Cc2ccc(C)cc2)c2ccc(OC)cc2)cc1`, the figures for the IC50 against Acetylcholinesterase and at Cholinesterase were 11.2 µM and 41 µM, respectively. Besides, the inhibition entry in test [1] is “Active”.

For the compound `Cc1ccc(CNc2ccc(Br)cc2)cc1`, the half-maximal inhibitory concentration (IC50) against Acetylcholinesterase and on Cholinesterase was more than 100 µM each time. Besides, in test [1], the inhibition entry is “Active”.

On to `Cc1ccc(CN(C(=O)/C=C/C(=O)N(Cc2ccc(C)cc2)c2ccc(C)cc2)c2ccc(C)cc2)cc1`, for which the IC50 on Acetylcholinesterase was 43.1 µM; against Cholinesterase it was 54.8 µM. The inhibition result in test [1] is “Active”.

For the compound `Cc1ccc(CN(C(=O)/C=C/C(=O)N(Cc2ccc(C)cc2)c2ccc(Br)cc2)c2ccc(Br)cc2)cc1`, the inhibition result in test [2], in test [3] and in test [1] was “Active” throughout. The results for the IC50 against Acetylcholinesterase and against Cholinesterase were 0.14 µM and 23.1 µM, respectively.

In the case of `Fc1ccc(NCc2ccccc2)cc1`, the IC50 against Acetylcholinesterase and at Cholinesterase was more than 100 µM each time. In addition, the inhibition result in test [1] was “Active”.

With `c1ccc(CNc2ccccc2)cc1` [N-BENZYLANILINE], the concentration for half-maximal inhibition (IC50) on Acetylcholinesterase was 13 µM; at Cholinesterase it was more than 100 µM. In addition, in test [1], the inhibition entry is “Active”.

With `O=C(/C=C/C(=O)N(Cc1ccccc1)c1ccc(F)cc1)N(Cc1ccccc1)c1ccc(F)cc1`, the concentration for half-maximal inhibition (IC50) was determined as 4.5 µM at Acetylcholinesterase and 89.5 µM against Cholinesterase. Further, the inhibition entry in test [1] is “Active”.

Regarding `Ic1ccc(NCc2ccccc2)cc1`, the IC50 at Acetylcholinesterase and on Cholinesterase was more than 100 µM each time. Also, the inhibition result in test [1] is “Active”.

With `Cc1ccc(NCc2ccccc2)cc1` [N-BENZYL-4-METHYLANILINE], the IC50 against Acetylcholinesterase and at Cholinesterase was more than 100 µM each time. Besides, the inhibition result in test [1] is “Active”.

As for `CCc1ccc(NCc2ccccc2)cc1`, the IC50 on Acetylcholinesterase and against Cholinesterase was more than 100 µM each time. Further, the inhibition result in test [1] was “Active”.

On to `Cc1ccc(CNc2ccc(I)cc2)cc1`, for which the IC50 at Acetylcholinesterase and against Cholinesterase was more than 100 µM in each case. Besides, the inhibition entry in test [1] was “Active”.
